Assay [1] addresses T1, Human 5-HT4 receptor (5-HT4b) (Homo sapiens, UniProt Q13639).
T1 construct: expressed in transfected cells; membrane preparation
Put plainly: Test Example 3: Human 5-HT4 receptor binding assay, membranes of CHO-K1 cells stably expressing 5-HT4b receptors (Table 99). Particulars: mean value of each group. In short, it runs like this: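 Membranes from CHO-K1 cells stably expressing 5-HT4b incubated with 0.1 nM [3H]-GR113808 in 50 mM Hepes pH 7.4, 37 °C, 30 min; nonspecific binding with 30 μM serotonin. Bound label collected by filtration and scintillation counting; IC50 from inhibition of specific binding.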

In a further assay the target is T2, human 5-HT4b receptor (Homo sapiens, UniProt Q13639).
T2 construct: expressed in transfected cells; host or cells: CHO cells (G418 selection)
In words: Test Example 4: Serotonin 4 (5-HT4) receptor agonist activity assay, cAMP HTRF in CHO cells (Table 100). Particulars: mean value; for Emax: CHO, 0.25 h, intrinsic activity, maximal activity of 5-HT defined as 100%, read-out: IA (%); for EC50: concentration showing 50% of IA. It counts as cell-based. In short, it runs like this:
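CHO cells expressing human 5-HT4b receptor, serum-reduced for 1–2 h, were suspended in Hanks/HEPES pH 7.4 and exposed to compound for 15 min at 31° C. cAMP detected by HTRF (cryptate/d2, 1 h RT, 620/665 nm). EC50 and intrinsic activity relative to maximal 5-HT response (10^−11 to 10^−7 M) set at 100%.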
(TR-FRET usually uses a lanthanide donor and a delayed reading to cut background.)

Bounds are passed on as bounds.

T1 sequence (Q13639 whole entry): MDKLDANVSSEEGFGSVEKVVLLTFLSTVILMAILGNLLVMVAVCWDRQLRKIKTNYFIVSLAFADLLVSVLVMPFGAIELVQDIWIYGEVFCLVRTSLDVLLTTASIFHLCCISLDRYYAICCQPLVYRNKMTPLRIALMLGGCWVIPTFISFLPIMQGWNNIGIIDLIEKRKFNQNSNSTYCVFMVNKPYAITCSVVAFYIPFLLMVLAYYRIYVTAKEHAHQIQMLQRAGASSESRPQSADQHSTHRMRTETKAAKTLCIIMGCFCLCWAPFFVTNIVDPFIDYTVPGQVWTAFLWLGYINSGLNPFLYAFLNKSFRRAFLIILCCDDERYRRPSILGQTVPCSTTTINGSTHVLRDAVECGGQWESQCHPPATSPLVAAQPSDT
T2 sequence (Q13639 whole entry): as above

For the molecule `CC(C)c1nn(-c2noc(C[C@H]3CCN(C[C@H]4CCN(S(C)(=O)=O)C4)C3)n2)c2c(F)cccc12` [Example 506, 7-fluoro-1-(5-{[(3R)-1-{[(3R)-1-(methylsulfonyl)pyrrolidin-3-yl]methyl}pyrrolidin-3-yl]methyl}-1,2,4-oxadiazol-3-yl)-3-(propan-2-yl)-1H-indazole], in assay [1], the concentration for half-maximal inhibition (IC50) (commonly the concentration that inhibits the measured activity by half) was below 20 nM. Moreover, at human 5-HT4b receptor, the Emax turned out to be 46% and a half-maximal response (EC50) required 2.8 nM.

`O=C(CO)N1CCC(N2CCC(c3nc(-n4nc(C5CC5)c5cccc(F)c54)no3)CC2)CC1` [Example 523, 1-{4-[3-(3-cyclopropyl-7-fluoro-1H-indazol-1-yl)-1,2,4-oxadiazol-5-yl]-1,4′-bipiperidin-1′-yl}-2-hydroxyethanone] yielded an IC50 in assay [1] below 20 nM. Besides, at human 5-HT4b receptor, the Emax came to 24% and a half-maximal effect (EC50) was put at 2.9 nM.

`CC(=O)N1CC[C@@H](CN2CC[C@H](Cc3nc(-n4nc(C(C)C)c5cccc(F)c54)no3)C2)C1` [Example 503, 1-[(3S)-3-{[(3R)-3-({3-[7-fluoro-3-(propan-2-yl)-1H-indazol-1-yl]-1,2,4-oxadiazol-5-yl}methyl)pyrrolidin-1-yl]methyl}pyrrolidin-1-yl]ethanone] came in with a concentration for half-maximal inhibition (IC50) in assay [1] below 20 nM. Moreover, on human 5-HT4b receptor, the Emax turned out to be 98% and the response was half-maximal at 5 nM (EC50).

The molecule `CC(C)c1nn(-c2noc(C[C@@H]3CCN(C[C@@H]4CCCN4S(C)(=O)=O)C3)n2)c2c(F)cccc12` [Example 510, 7-fluoro-1-(5-{[(3S)-1-{[(2S)-1-(methylsulfonyl)pyrrolidin-2-yl]methyl}pyrrolidin-3-yl]methyl}-1,2,4-oxadiazol-3-yl)-3-(propan-2-yl)-1H-indazole] gave a half-inhibitory concentration (IC50) in assay [1] below 20 nM. Further, at human 5-HT4b receptor, the Emax amounted to 46% and the EC50 (in general, the midpoint of the concentration-response curve) was 2.7 nM.

The molecule `CC(C)c1nn(-c2noc(C3CCN(C4C5CCC4CN(C(=O)CO)C5)CC3)n2)c2c(F)cccc12` (stereo not drawn) [Example 534, 1-[(8-anti)-8-(4-(3-[7-fluoro-3-(propan-2-yl)-1H-indazol-1-yl]-1,2,4-oxadiazol-5-yl}piperidin-1-yl)-3-azabicyclo[3.2.1]oct-3-yl]-2-hydroxyethanone] gave an IC50 in assay [1] of 42.4 nM. At human 5-HT4b receptor, the Emax was 104% and the EC50 was 5.7 nM.

For the molecule `COCC(=O)N1CCC(C)(N2CCC(c3nc(-n4nc(C(C)C)c5cccc(F)c54)no3)CC2)CC1` [Example 490, 1-(4-{3-[7-fluoro-3-(propan-2-yl)-1H-indazol-1-yl]-1,2,4-oxadiazol-5-yl}-4′-methyl-1,4′-bipiperidin-1′-yl)-2-methoxyethanone], the IC50 in assay [1] was below 20 nM. Besides, at human 5-HT4b receptor, the Emax amounted to 111% and the midpoint of the response, the EC50, lay at 1.6 nM.

`CC(C)c1nn(-c2noc([C@H]3C[C@@H](NCC4CCN(S(C)(=O)=O)CC4)C3)n2)c2c(F)cccc12` [Example 594, cis-3-{3-[7-fluoro-3-(propan-2-yl)-1H-indazol-1-yl]-1,2,4-oxadiazol-5-yl}-N-{[1-(methylsulfonyl)piperidin-4-yl]methyl}cyclobutanamine] had an IC50 in assay [1] below 20 nM. Also, on human 5-HT4b receptor, the Emax turned out to be 106% and the EC50 amounted to 2.3 nM.

In assay [1], `CC(C)c1nn(-c2noc([C@H]3CC[C@@H](NCCC4CN(S(C)(=O)=O)C4)CC3)n2)c2c(F)cccc12` [Example 617, cis-4-{3-[7-fluoro-3-(propan-2-yl)-1H-indazol-1-yl]-1,2,4-oxadiazol-5-yl}-N-{2-[1-(methylsulfonyl)azetidin-3-yl]ethyl}cyclohexanamine] registered an IC50 of 24.3 nM. Moreover, on human 5-HT4b receptor, the Emax amounted to 104% and a half-maximal effect (EC50) was put at 8.4 nM.

On to `CC(C)c1nn(-c2noc(C[C@@H]3CCN(C[C@H]4CCN(S(C)(=O)=O)C4)C3)n2)c2c(F)cccc12` [Example 518, 7-fluoro-1-(5-{[(3S)-1-{[(3R)-1-(methylsulfonyl)pyrrolidin-3-yl]methyl}pyrrolidin-3-yl]methyl}-1,2,4-oxadiazol-3-yl)-3-(propan-2-yl)-1H-indazole], for which, in assay [1], the half-maximal inhibitory concentration (IC50) is below 20 nM. Further, on human 5-HT4b receptor, the Emax amounted to 59% and the 50% effective concentration (EC50) came out at 5.5 nM.

`CC(C)c1nn(-c2noc(C[C@H]3CCN(C[C@@H]4CCCN4S(C)(=O)=O)C3)n2)c2c(F)cccc12` [Example 498, 7-fluoro-1-(5-{[(3R)-1-{[(2S)-1-(methylsulfonyl)pyrrolidin-2-yl]methyl}pyrrolidin-3-yl]methyl}-1,2,4-oxadiazol-3-yl)-3-(propan-2-yl)-1H-indazole] returned an IC50 in assay [1] below 20 nM. Further, at human 5-HT4b receptor, the Emax came to 36% and the EC50 turned out to be 3.4 nM.

In assay [1], `O=C(CO)N1CCC(N2CCC(c3nc(-n4nc(C5CCC5)c5cccc(F)c54)no3)CC2)CC1` [Example 527, 1-{4-[3-(3-cyclobutyl-7-fluoro-1H-indazol-1-yl)-1,2,4-oxadiazol-5-yl]-1,4′-bipiperidin-1′-yl}-2-hydroxyethanone] gave a 50% inhibitory concentration (IC50) below 20 nM. In addition, at human 5-HT4b receptor, the Emax was 114% and the concentration for a half-maximal effect (EC50) turned out to be 5.7 nM.

Turning to `CC(C)c1nn(-c2noc(C[C@@H]3CCN(C4CCN(C(=O)CO)CC4)C3)n2)c2c(F)cccc12` [Example 545, 1-{4-[(3S)-3-({3-[7-fluoro-3-(propan-2-yl)-1H-indazol-1-yl]-1,2,4-oxadiazol-5-yl}methyl)pyrrolidin-1-yl]piperidin-1-yl}-2-hydroxyethanone], in assay [1], the half-inhibitory concentration (IC50) was below 20 nM. For the same molecule, on human 5-HT4b receptor, the Emax stood at 60% and the EC50 was determined as 5.5 nM.

`CC(C)c1nn(-c2noc(C[C@H]3CCN(C[C@H]4CCN(C(=O)CO)C4)C3)n2)c2c(F)cccc12` [Example 544, 1-[(3R)-3-{[(3R)-3-({3-[7-fluoro-3-(propan-2-yl)-1H-indazol-1-yl]-1,2,4-oxadiazol-5-yl}methyl)pyrrolidin-1-yl]methyl}pyrrolidin-1-yl]-2-hydroxyethanone] registered a half-inhibitory concentration (IC50) in assay [1] below 20 nM. Besides, at human 5-HT4b receptor, the Emax turned out to be 58% and it took 4.7 nM to reach a half-maximal effect (EC50).

In assay [1], `CCc1nn(-c2noc(C3CCN(C4(C)CCN(C(=O)COC)CC4)CC3)n2)c2c(F)cccc12` [Example 494, 1-{4-[3-(3-ethyl-7-fluoro-1H-indazol-1-yl)-1,2,4-oxadiazol-5-yl]-4′-methyl-1,4′-bipiperidin-1′-yl}-2-methoxyethanone] showed a half-inhibitory concentration (IC50) below 20 nM. At human 5-HT4b receptor, the Emax is 72% and the EC50 was 2.1 nM.

In assay [1], `CC(=O)N1CC[C@H](CN2CC[C@@H](Cc3nc(-n4nc(C(C)C)c5cccc(F)c54)no3)C2)C1` [Example 517, 1-[(3R)-3-{[(3S)-3-({3-[7-fluoro-3-(propan-2-yl)-1H-indazol-1-yl]-1,2,4-oxadiazol-5-yl}methyl)pyrrolidin-1-yl]methyl}pyrrolidin-1-yl]ethanone] displayed a half-inhibitory concentration (IC50) below 20 nM. Besides, on human 5-HT4b receptor, the Emax turned out to be 72% and the EC50 was determined as 6.1 nM.

`CC(C)c1nn(-c2noc(C[C@H]3CCN(C[C@H]4CCCN4C(=O)CO)C3)n2)c2c(F)cccc12` [Example 541, 1-[(2R)-2-{[(3R)-3-({3-[7-fluoro-3-(propan-2-yl)-1H-indazol-1-yl]-1,2,4-oxadiazol-5-yl}methyl)pyrrolidin-1-yl]methyl}pyrrolidin-1-yl]-2-hydroxyethanone] came in with an IC50 in assay [1] of 35.8 nM. In addition, at human 5-HT4b receptor, the Emax amounted to 79% and a half-maximal effect (EC50) was put at 9 nM.

The values above are taken from patent US20140057895A1, “INDAZOLE- AND PYRROLOPYRIDINE-DERIVATIVE AND PHARMACEUTICAL USE THEREOF” (priority 2011, published 2014).
